Measurements as given in patent US7432307B2, “Modulators of retinol-retinol binding protein (RBP)-transthyretin (TTR) complex formation” (Sirion Therapeutics, Inc., priority 2004, dated 2008).
Entries after “also recorded” stand apart in the source; their conditions may differ.

Columns and labels:
retinol-RBP-TTR complex = molecular target: T1, retinol-RBP-TTR complex (Homo sapiens, UniProt P02753); test: High-throughput FRET assay for detection of RBP/TTR interaction (Alexa430-TTR); format: binding; conditions: for inhibition of RBP-TTR interaction in high throughput assay: 384-well format, varied concentrations 0-4 μM, conditions of Example 7
T1 construct: purchased Sigma Chemical Co. (TTR only)
Text: Reduction of serum retinol and RBP are correlated with concomitant reductions in toxic lipofliscin fluorophores. Because compounds that affect RBP-TTR interaction will directly affect fluorophore levels in the eye, a high-throughput screen for small molecules which prevent interaction of RBP with TTR was developed. This screen employs probe-labeled forms of RBP and TTR which participate in a unique fluorescence resonance energy transfer (FRET) event when complexed. Compounds which interfere with RBP-TTR interaction prevent FRET. […] The sample is incubated at 37° C. for 30 min and then illuminated with 330 nm light. The emission spectra are shown in the range of 400-600 nm. HPR binds to RBP and prevents interaction with TTR, and here this property of HPR is utilized here to validate the ability of this screen to detect inhibition of RBP-TTR interaction. […] Additionally, the design of this assay permits discrimination between compounds which interact with RBP versus those which interact with TTR. Thus, by using two distinct excitation energies (280 nm and 330 nm, for protein and retinol, respectively) and implementing simultaneous monitoring of the retinol and TTR-probe fluorescence, the “target” of a presumptive small molecule can be easily determined.
In order to facilitate screening of large numbers of test compounds, the RBP-TTR assay has been adapted to a 384-well plate format. This transition required re-evaluation of the reagent concentrations and minimal assay volume for maintaining solubility and detection sensitivity. Under the 384-well plate format, the assay can be efficiently performed in a 50 μl volume using 0.5 μM apo-RBP, 0.5 μM TTR, 2-8 μM test compound and 1 μM retinol. The microplate with minimal fluorescence background, best optical clarity and most appropriate well design was determined to be Corning's model #3711.
Accordingly, HPR was employed at varied concentrations (from 0-4 μM), using the conditions specified in Example 7, to evaluate the high throughput assay.
The mechanism of action underlying this effect can be explained by the disruption of RBP-TTR interactions. In order to explore this possibility and to further validate the RBP-TTR screen, the effects of all-trans retinoic and 13-cis retinoic acid, using the conditions the conditions specified for analysis of HPR, were examined.

serum retinol and RBP = conditions: cited from earlier work; for reduction in circulating RBP and circulating retinol in vivo: literature (several investigators; Berni et al. 1993)
ABCA4 null mutant mice = test: HPR administered to ABCA4 null mutant mice for 28 days; serum retinol, ocular retinoids and A2E; format: in vivo
Method: In order to further explore the role of HPR in the visual cycle, the in vivo effects of HPR in mice have been examined. Thus, HPR was administered to ABCA4 null mutant mice (5-20 mg/kg, i.p. in DMSO) for periods of 28 days. Control mice received only the DMSO vehicle. At the end of the treatment period, the concentrations of retinol and HPR in serum and retinoid content in ocular tissues was measured. […] Thus, the calculated percent reduction for each of the measured retinoids, and A2E, was nearly identical (see FIG. 6). […] If systemically-administered HPR inhibits ocular LRAT, then reduction of ocular retinoids and A2E should exceed the reduction in serum retinol.
Genetic crosses of RBP4^−/− mice with ABCA4^−/− mice was undertaken to examine the role of RBP in mediation of retinol levels in serum and ocular tissue.

LRAT = molecular target: T2, LRAT (Homo sapiens, UniProt O95237); test: In vitro analyses of LRAT activity; format: biochemical; conditions: HPR pre-incubated with enzyme source material
T2 sequence (O95237 1-230): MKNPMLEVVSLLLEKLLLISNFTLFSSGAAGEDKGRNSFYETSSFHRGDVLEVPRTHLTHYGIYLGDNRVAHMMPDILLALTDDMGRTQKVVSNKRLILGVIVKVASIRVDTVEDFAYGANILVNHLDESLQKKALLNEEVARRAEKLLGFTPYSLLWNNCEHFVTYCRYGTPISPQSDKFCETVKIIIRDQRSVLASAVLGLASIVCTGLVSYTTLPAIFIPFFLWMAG

RBP-TTR interaction = RBP-TTR interaction (Homo sapiens, UniProt P02753); conditions: literature (Malpeli et al.; Holven et al.; Radu et al.); cited from earlier work
[1] = HPR administered to wild type mice for 5 days, illumination, then retinoids in serum and ocular tissue; format: in vivo; conditions: mouse, ocular tissue, ip, 20 mg/kg i.p. in DMSO, read-out: HPR accumulation within ocular tissues during the treatment period
Method: In order to ensure that the observed effects of HPR in ABCA4 null mice were not due to the genetic mutation, HPR (20 mg/kg, i.p. in DMSO) was administered to wild type mice for 5 days. Control mice received only the DMSO vehicle. On the final day of HPR treatment, the mice were exposed to constant illumination (1000 lux for 10 min) order “stimulate” the visual cycle to generate visual chromophore. Immediately following the illumination period, the animals were sacrificed and the concentrations of retinoids in serum and ocular tissue were determined. […] As in the previous study, HPR caused a significant reduction in serum retinol (˜55%), ocular retinol (˜40%) and ocular retinal (˜30%). Although HPR did accumulate within ocular tissues during the treatment period (˜5 μM), no effect on LRAT or Rpe65/isomerase activities was observed.

[2] = 5-20 mg/kg i.p. in DMSO, 28 days

| SMILES | inhibition of RBP-TTR interaction in high throughput assay (retinol-RBP-TTR complex) | reduction in circulating RBP and circulating retinol in vivo (serum retinol and RBP) | retinol and TTR-probe fluorescence (loss of complexation) (retinol-RBP-TTR complex; 1 μM HPR, 0.5 μM unlabeled RBP + 0.5 μM Alexa430-TTR, 37° C., 30 min, 330 nm excitation) | reductions in serum retinol and RBP (serum retinol and RBP; literature (Formelli et al.; Torrisi et al.)) | reductions in A2E (ABCA4 null mutant mice; [2]) | reductions in ocular retinoids (ABCA4 null mutant mice; [2]) | reductions in serum retinol as a function of increasing serum HPR (ABCA4 null mutant mice; [2]) | effect on visual cycle proteins (e.g., LRAT) when administered systemically (ABCA4 null mutant mice; systemic administration) | LRAT activity in vitro (LRAT) | interaction of TTR with RBP in vitro (RBP-TTR interaction) | concentration at 5 days [1] |
| --- | --- | --- | --- | --- | --- | --- | --- | --- | --- | --- | --- |
| CC1=C(/C=C/C(C)=C/C=C/C(C)=C\C(=O)O)C(C)(C)CCC1 [13-cis retinoic acid, 13-cis-retinoic acid] | entirely consistent with the in vivo data | observed in vivo | – | – | – | – | – | – | – | – | – |
| CC1=C(/C=C/C(C)=C/C=C/C(C)=C/C(=O)Nc2ccc(O)cc2)C(C)(C)CCC1 [HPR, N-(4-hydroxyphenyl)retinamide] | inhibit RBP-TTR interaction | established in vivo | significantly reduced | profound reductions | commensurate reductions | commensurate reductions | Profound reductions | limited effect | inhibition of LRAT activity | interferes with the normal interaction of TTR with RBP; also recorded: effective inhibitor | ~5 µM |
| CC1=C(/C=C/C(C)=C/C=C/C(C)=C/C(=O)O)C(C)(C)CCC1 [all-trans retinoic acid, all-trans-retinoic acid] | entirely consistent with the in vivo data | observed in vivo | – | – | – | – | – | – | – | – | – |
